{"source": "patent US20050228041A1", "about": "“Protective and therapeutic uses for tocotrienols” (priority 2003, published 2005)", "key": {"[1]": {"test_system": "rat primary cortical neurons", "assay": "Imaging of glutamate-induced degeneration of rat primary cortical neurons (immunofluorescence, live cell imaging)", "type": "cell-based", "settings": "glutamate 10 mM, α-tocotrienol 250 nM or BL15 2.5 μM 5 min before", "experimental": "Phase contrast images were collected once every 15 mins for 18 h from 8 h after glutamate treatment.\nFor immunofluorescence microscopy, primary cultures of rat cortical neurons were plated on 35 mm plates pre-coated with poly-L-lysine. After 24 h, cell were treated with α-tocotrienol or BL15 for 5 minutes and then challenged with glutamate or exposed to glutamate. After 24 h of glutamate exposure, cells were washed thrice in PBS, fixed for 10 minutes at room temperature in 4% paraformaldehyde, and permeabilized with PBS-T (PBS containing 0.2% Triton X-100) for 20 minutes at room temperature. Samples were then rinsed 3× with PBS-T and blocking (2% BSA in PBS-T) was done for 1 h at room temperature. After blocking, samples were incubated overnight at 4° C. with the primary antibody (anti-neurofilament 200 (1:100, Sigma St. Louis, Mo.) or neuronal class III α-tubulin (1:500, Covance Berkeley, Calif.)}. After washing with PBS (3×, 5 min each), the samples were incubated with Alexa Fluor 488 conjugated goat anti-mouse or anti-rabbit (Molecular Probes Eugene, Oreg.) secondary antibody for 45 minutes at room temperature. This was followed by three PBS washes, and mounting in aqueous medium. Fluorescent images were collected using a Zeiss Axiovert 200M microscope. Images were acquired using Axiovision 3.1.\nFor live cell imaging, primary cultures of rat cortical neurons were plated on 35 mm plates pre-coated with poly-L-lysine. […] Images were collected once every 15 minutes using a specialized phase contrast Zeiss optics suited for imaging cells growing in routine culture plates."}, "HT4 neurons": {"test_system": "HT4 neurons", "assay": "Glutamate-induced death of HT4 neurons (propidium iodide exclusion flow cytometry, cell counts)", "type": "cell-based, mouse", "description": "Referring to FIG. 1, primary rat immature cortical neurons (A-C) or HT4 (D) were either treated or not with α-tocotrienol (as indicated) for 5 min and challenged with either glutamate (10 mM; A); L-homocysteic acid (1 mM; B); or buthionine sulfoximine (0.15 mM; BSO) for 24 h. […] Cells were counted at 12, 24 and 36 h after glutamate challenge.\nFirst, we tested for the involvement of 12-LOX in the execution of glutamate-induced death in our model. We started by using the 12-LOX specific inhibitor baicalein or BL15. Referring to FIG. 3, HT4 neurons (A) were either treated or not with a-tocotrienol (250 nM) or […] (2.5 μM, 12-lipoxygenase inhibitor) for 5 min and then challenged with glutamate (10 mM). Cell viability was determined using propidium iodide (PI) exclusion flow cytometry assay. PI−=live; PI+=dead. Rat primary immature cortical neurons (B-D) were either treated or not with α-tocotrienol (100 nM) or BL15 (2.5 μM) for 5 min and challenged either with glutamate (10 mM; B); L-homocysteic acid (1 mM; C) or buthionine sulfoximine (0.15 mM; BSO; D) for 24 h. Arachidonic acid, 50 μM for 24h. BL15, Baicalein 5,6,7-trihydroxy-flavone.\nCell culture. Mouse hippocampal HT4 cells, were grown in Dulbecco's Modified Eagle Medium supplemented with 10% fetal calf serum, penicillin (100 U/ml) and streptomycin (100 μg/ml) at 37° C. in a humidified atmosphere containing 95% air and 5% CO2. HT4 cells were provided by Dr. D. E. Koshland Jr. (University of California at Berkeley) (Sen et al., 2000). Primary cortical neurons. Cells were isolated from the cerebral cortex of rat feti (Sprague Dawley; day 17 of gestation) or mouse feti (C57BL/6 mice, day 14 of gestation) as described (Murphy et al., 1990). For 12-LOX knockout studies, neurons were isolated from the feti of B6.129S2-Alox15^tm1Fun (Jackson Laboratory, […].). After isolation from the brain, cells were counted and seeded in culture plates at a density of 2-3×10^6 cells per 35 mm plate (Murphy et al., 1990). Cells were grown in Minimal Essential Medium (MEM) supplemented with 10% heat-inactivated fetal bovine serum, 40 μM cystine and antibiotics (100 μg/ml streptomycin, 100 units/ml penicillin, 0.25 μg/ml amphotericin). Cultures were maintained at 37° C. in 5% CO2 and 95% air in a humidified incubator. All experiments were carried out 24 h after plating.\nTreatment with neurotoxic agents. Immediately before experiments, culture media was replaced with fresh medium supplemented with serum and antibiotics. Glutamate (10 mM) was added to the media as aqueous solution (Han et al., 1997a; Sen et al., 2000; Tirosh et al., 2000). […] Other agents used to induce death in neuronal cells have been described in the pertinent figure legends.\nVitamin E treatment. Stock solutions (10^3X of working concentration) of α-tocotrienol was prepared in ethanol. […]\nDetermination of cell viability. Viability of HT4 cells was determined using propidium iodide exclusion assay using the flow cytometer as described by us previously (Sen et al., 2000; Tirosh et al., 2000). Because primary neuronal cultures tend to aggregate during flow cytometry, the viability of these cells was assessed by measuring lactate dehydrogenase (LDH) leakage (Han et al., 1997a) from cells to media 24 h following glutamate treatment using in vitro toxicology assay kit from Sigma Chemical Co. (St. Louis, Mo., USA). […]"}}, "note": "Entries after “also recorded” stand apart in the source; their conditions may differ.", "data": [{"compound": "CC(C)=CCC/C(C)=C/CC/C(C)=C/CC[C@]1(C)CCc2c(C)c(O)c(C)c(C)c2O1", "note": "[α-tocotrienol]", "values": [{"measurement": "glutamate-induced degeneration of the neural network and neuronal growth", "setting": "[1]", "value": "resisted degeneration and continued to grow; also recorded: prevents glutamate-induced neuro-degeneration; also recorded: protection"}, {"measurement": "glutamate-induced degeneration of the neural network and neuronal growth", "setting": "[1]; listed as α-Tocotrienol", "value": "insensitive to glutamate"}, {"measurement": "protection against glutamate-induced toxicity / loss of cell viability of HT4", "setting": "HT4 neurons; glutamate 10 mM, tocotrienol 100 nM (nM levels) 5 min before", "value": "protect against loss of cell viability"}, {"measurement": "proliferation / growth rate of glutamate-treated HT4 cells", "setting": "HT4 neurons; tocotrienol 100 nM (nM levels), cells counted 12, 24 and 36 h after glutamate", "value": "preserve the normal growth rate"}]}]}
